Laboratory results published in patent US10869931B2, “Polyethylene glycol-modified angiogenesis inhibitor HM-1 and application thereof” (NANJING ANJI BIOLOGICAL TECHNOLOGY CO.,LTD, priority 2016, dated 2020).
“And” between values parts separate entries of the source, which are not always exact repeats. Equal entries are not always repeated. Marks after values point to notes of the source that are not given here.

Experiments:
[1] = system: Uterine cancer tumor cells; experiment: MTT proliferation inhibition, uterine cancer cells; assay type: cell-based, human; parameters: concentration or dose not given beside the values; settings: 48 h
Protocol: (§1) The activity of mPEG-HM-1 to inhibit the growth of various tumor cells was examined by MTT assay. The tumor cells were cultured to a concentration of 90% or more in a 37° C., 5% CO2 incubator and collected by trypsinization. The cells were resuspended in the culture medium and counted under a microscope to adjust the cell concentration to 2×10^4 cells/mL, the cell suspension was inoculated into a 96-well plate at 100 μL/well and incubated overnight at 37° C. in a 5% CO2 incubator. mPEG-HM-1 was diluted with the culture solution to each predetermined concentration. Docetaxel is diluted to the final concentration with the culture medium. After the cells were fully attached, each dilution was added to a 96-well plate (100 μL/well). The mPEG-HM-1 dilution was added as a drug-administered group, and docetaxel was added as a positive control group, and a culture solution without any drug was used as a negative control group. Incubate for 48 h at 37° C. in a 5% CO2 incubator. 5 mg/mL of MTT was added to a 96-well plate at 20 μL per well, and incubation was continued for 4 hours. The medium was aspirated, dissolved in 150 μL of DMSO per well, and gently mixed by shaking for 10 min. The absorbance was measured at a measurement wavelength of 570 nm and a reference wavelength of 630 nm using a microplate reader, and the rate of growth inhibition (proliferation inhibition, PI) was calculated. The formula is as follows: PI (%)=1−administration group/negative group
(§2) The test was repeated 3 times independently, and the results obtained by the test were expressed as mean±SD, and the test results are shown in Table 15 to Table 18.

[2] = system: Thyroid cancer tumor cells; experiment: MTT proliferation inhibition, thyroid cancer cells; assay type: cell-based, human; parameters: concentration or dose not given beside the values; settings: 48 h
Protocol: as §1, §2

[3] = system: Cervical cancer tumor cells; experiment: MTT proliferation inhibition, cervical cancer cells; assay type: cell-based, human; parameters: concentration or dose not given beside the values; settings: 48 h
Protocol: as §1, §2

[4] = system: Pancreatic cancer tumor cells; experiment: MTT proliferation inhibition, pancreatic cancer cells; assay type: cell-based, human; parameters: concentration or dose not given beside the values; settings: 48 h
Protocol: as §1, §2

[5] = system: Esophageal cancer tumor cells; experiment: MTT proliferation inhibition, esophageal cancer cells; assay type: cell-based, human; parameters: concentration or dose not given beside the values; settings: 48 h
Protocol: as §1, §2

[6] = system: Prostate cancer tumor cells; experiment: MTT proliferation inhibition, prostate cancer cells; assay type: cell-based, human; parameters: concentration or dose not given beside the values; settings: 48 h
Protocol: as §1, §2

[7] = system: Gastric cancer tumor cells; experiment: MTT proliferation inhibition, gastric cancer cells; assay type: cell-based, human; parameters: concentration or dose not given beside the values; settings: 48 h
Protocol: as §1, §2

[8] = system: Ovarian cancer tumor cells; experiment: MTT proliferation inhibition, ovarian cancer cells; assay type: cell-based, human; parameters: concentration or dose not given beside the values; settings: 48 h
Protocol: as §1, §2

[9] = system: Breast cancer tumor cells; experiment: MTT proliferation inhibition, breast cancer cells; assay type: cell-based, human; parameters: concentration or dose not given beside the values; settings: 48 h
Protocol: as §1, §2

[10] = system: Bladder Cancer tumor cells; experiment: MTT proliferation inhibition, bladder cancer cells; assay type: cell-based, human; parameters: concentration or dose not given beside the values; settings: 48 h
Protocol: as §1, §2

Brain tumor cells = experiment: MTT proliferation inhibition, brain tumor cells; assay type: cell-based, human; parameters: concentration or dose not given beside the values; settings: 48 h
Protocol: as §1, §2

Hemangioma tumor cells = experiment: MTT proliferation inhibition, hemangioma cells; assay type: cell-based, human; parameters: concentration or dose not given beside the values; settings: 48 h
Protocol: as §1, §2

Melanoma tumor cells = experiment: MTT proliferation inhibition, melanoma cells; assay type: cell-based, human; parameters: concentration or dose not given beside the values; settings: 48 h
Protocol: as §1, §2

[11] = system: Kidney cancer tumor cells; experiment: MTT proliferation inhibition, kidney cancer cells; assay type: cell-based, human; parameters: concentration or dose not given beside the values; settings: 48 h
Protocol: as §1, §2

Lung cancer tumor cells = experiment: MTT proliferation inhibition, lung cancer cells; assay type: cell-based, human; parameters: concentration or dose not given beside the values; settings: 48 h
Protocol: as §1, §2

sarcoma tumor cells = experiment: MTT proliferation inhibition, sarcoma cells; assay type: cell-based, human; parameters: concentration or dose not given beside the values; settings: 48 h
Protocol: as §1, §2

[12] = system: Head and neck cancer tumor cells; experiment: MTT proliferation inhibition, head and neck cancer cells; assay type: cell-based, human; parameters: concentration or dose not given beside the values; settings: 48 h
Protocol: as §1, §2

[13] = system: Colorectal cancer tumor cells; experiment: MTT proliferation inhibition, colorectal cancer cells; assay type: cell-based, human; parameters: concentration or dose not given beside the values; settings: 48 h
Protocol: as §1, §2

Liver cancer tumor cells = experiment: MTT proliferation inhibition, liver cancer cells; assay type: cell-based, human; parameters: concentration or dose not given beside the values; settings: 48 h
Protocol: as §1, §2

[14] = system: Human Umbilical Vein Endothelial Cells (HUVEC); experiment: Transwell migration of HUVEC; assay type: cell-based; settings: 10 μg/mL, 24 h
Protocol: 10 mg/mL Matrigel was diluted 1:2 with HUVEC-specific medium, spread on a transwell chamber membrane, and air-dried at room temperature. HUVEC cells cultured in logarithmic growth phase were digested with trypsin digest, collected, washed twice with PBS, and resuspended in blank HUVECs-specific medium. The cells were counted under a microscope, and the cell concentration was adjusted to 1×10^5/mL. The test solutions of each group were prepared and diluted to 100 μL with a blank HUVECs-specific medium. The cells were seeded into a transwell chamber at 100 μL per well, and each set of test solution was added to the chamber. The cell culture was stimulated by adding 0.6 mL of endothelial cell culture medium containing 5% fetal bovine serum and 1% ECGS into a 24-well plate, and cultured at 5% CO2 for 24 hour at 37° c. Discard the culture medium in the well, fix it with 90% alcohol at room temperature for 30 minutes, 0.1% crystal violet for 10 min at room temperature, rinse with water, gently wipe off the unsprayed cells in the upper layer with a cotton swab, observe under microscope and select four fields to take pictures. Calculate migration inhibition (MI) according to the formula: […]
Ntest was the number of cell migration in the test group, and Ncontrol was the number of cell migration in the blank control group.
The test was repeated 3 times independently. The results obtained from the test were calculated as mean±SD, and a statistical T test was performed. *P<0.05 was a significant difference, and **P<0.01 was a very significant difference.

[15] = system: human retinal vascular endothelial cells (HRCEC); experiment: MTT proliferation of human retinal vascular endothelial cells; assay type: cell-based; settings: 10 μg/mL (positive control), 48 h
Protocol: The activity of the angiogenesis inhibitor polypeptide to inhibit proliferation of human retinal vascular endothelial cells was examined by MTT assay. HRCEC cells were cultured in a 37° C., 5% CO2 incubator to a density of 90% or more, and collected by trypsinization. The cells were resuspended in the culture medium and counted under a microscope to adjust the cell concentration to 3.0×10^4 cells/mL. The cell suspension was inoculated into a 96-well plate at 100 μL per well and cultured overnight at 37° C. in a 5% CO2 incubator. After the cells were completely adhered, the angiogenesis inhibitor polypeptide was added as the administration group, and Avastin was used as the positive control group, and the culture media without any drug was used as a blank control group, and the culture media were diluted to each predetermined concentration. Each dilution was separately added to a 96-well plate at 100 μL per well and incubated for 48 h at 37° C. in a 5% CO2 incubator. 20 μL of 5 mg/mL MTT was added to each well of a 96-well plate and incubation was continued for 4 h. The medium was aspirated and dissolved in 100 μL of DMSO per well. […] The formula is as follows: PI (%)=1−administration group/negative group
The test was repeated 3 times independently. The results obtained by the test were expressed as mean±SD, and a statistical T test was performed. *P<0.05 was a significant difference, and **P<0.01 was a very significant difference.

Compound: CC(=O)O[C@@]12CO[C@@H]1C[C@H](O)[C@@]1(C)C(=O)[C@H](O)C3=C(C)[C@@H](OC(=O)[C@H](O)[C@@H](NC(=O)OC(C)(C)C)c4ccccc4)C[C@@](O)([C@@H](OC(=O)c4ccccc4)[C@H]21)C3(C)C [Docetaxel, reference compound]
- rate of growth inhibition [1]: 80.25 ± 22.18%
- rate of growth inhibition [2]: 56.21 ± 14.28%
- rate of growth inhibition [3]: 80.21 ± 19.54%
- rate of growth inhibition [4]: 71.13 ± 20.13%
- rate of growth inhibition [5]: 60.18 ± 17.02%
- rate of growth inhibition [6]: 45.62 ± 14.03%
- rate of growth inhibition [7]: 77.34 ± 22.18%
- rate of growth inhibition [8]: 85.12 ± 19.39%
- rate of growth inhibition [9]: 65.31 ± 21.44%
- rate of growth inhibition [10]: 46.72 ± 13.65%
- rate of growth inhibition (Brain tumor cells): 59.23 ± 16.21%
- rate of growth inhibition (Hemangioma tumor cells): 56.92 ± 16.76%
- rate of growth inhibition (Melanoma tumor cells): 83.49 ± 23.27%
- rate of growth inhibition [11]: 72.93 ± 18.31%
- rate of growth inhibition (Lung cancer tumor cells): 68.23 ± 18.32%
- rate of growth inhibition (sarcoma tumor cells): 51.31 ± 10.49%
- rate of growth inhibition [12]: 49.23 ± 10.01%
- rate of growth inhibition [13]: 74.59 ± 20.33%
- rate of growth inhibition (Liver cancer tumor cells): 66.70 ± 17.25%

Compound: Avastin: positive control in HUVEC migration and HRCEC proliferation tests [reference compound]
- cell migration number (Mean ± SD) [14]: 564.53 ± 60.36 and 560.64 ± 62.06 and 532.80 ± 60.06 and 572.06 ± 48.92
- inhibition rate of HUVEC migration [14]: 46.78%* and 45.92%* and 48.22%* and 47.62%*
- Inhibition rate ([15]; HRCEC proliferation): 65.83%** and 64.93%** and 65.71%** and 66.07%**
- A570 nm-A630 nm ([15]; HRCEC, MTT): 0.4479 ± 0.08104 and 0.4636 ± 0.08322 and 0.4494 ± 0.08132 and 0.4518 ± 0.08013
